Data as given in US10125100B2, “Kinase inhibitors” (Respivert Limited, priority 2014, dated 2018).

Columns and labels:
Syk = Syk (Homo sapiens (Human), UniProt P43405); assay: Syk enzyme inhibition, Z-LYTE FRET; type: biochemical
Procedure: (§1) The enzyme inhibitory activities of compounds disclosed herein are determined by FRET using synthetic peptides labelled with both donor and acceptor fluorophores (Z-LYTE, Invitrogen Ltd., Paisley, UK).
(§2) The relevant enzyme (3000 ng/mL or 2000 ng/mL respectively, 2.5 μL) is incubated with the test compound (either 1 μg/mL, 0.1 μg/mL, 0.01 μg/mL, or 0.001 μg/mL, 2.5 μL each) for 2 hr at RT. The FRET peptides (8 μM, 2.5 μL), and appropriate ATP solutions (2.5 μL, 800 μM for c-Src, and 60 μM ATP for Syk) are then added to the enzymes/compound mixtures and the mixture incubated for 1 hr. Development reagent (protease, 5 μL) is added for 1 hr prior to detection in a fluorescence microplate reader (Varioskan® Flash, ThermoFisher Scientific).
(§3) In all cases, the site-specific protease cleaves non-phosphorylated peptide only and eliminates the FRET signal. Phosphorylation levels of each reaction are calculated using the ratio of coumarin emission (donor) over fluorescein emission (acceptor), for which high ratios indicate high phosphorylation and low ratios indicate low phosphorylation levels.

c-Src = c-Src (Homo sapiens (Human), UniProt P12931); assay: c-Src enzyme inhibition, Z-LYTE FRET; type: biochemical
Procedure: as §1
as §2, with “The inhibitory activities of compounds of the invention against c-Src and Syk enzymes (Invitrogen), are evaluated in a similar fashion to that described hereinabove. The relevant” for “The relevant”
as §3

mitosis in PBMCs = assay: (g) Cell mitosis assay; type: cell-based; conditions: Homo sapiens, PBMC, 5 μg/mL
Procedure: Peripheral blood mononucleocytes (PBMCs) from healthy subjects are separated from whole blood (Quintiles, London, UK) using a density gradient (Histopaque®-1077, Sigma-Aldrich, Poole, UK). The PBMCs (3 million cells per sample) are subsequently treated with 2% PHA (phytohaemagglutinin, Sigma-Aldrich, Poole, UK) for 48 hr, followed by a 20 hr exposure to varying concentrations of test compounds. At 2 hr before collection, PBMCs are treated with demecolcine (0.1 μg/mL; Invitrogen, Paisley, UK) to arrest cells in metaphase. To observe mitotic cells, PBMCs are permeabilized and fixed by adding Intraprep (50 μL; Beckman Coulter, France), and stained with anti-phospho-histone 3 ([…]; #9701; Cell Signalling, Danvers, Mass.) and propidium iodide (1 mg/mL; Sigma-Aldrich, Poole, UK) as previously described (Muehlbauer P. A. and Schuler M. J., Mutation Research, 2003, 537:117-130). Fluorescence is observed using an ATTUNE flow cytometer (Invitrogen, Paisley, UK), gating for lymphocytes.

Jurkat cells = assay: (r) Cell cytotoxicity assay; type: cell-based, human; conditions: 24 hours
In short: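 Viability read by flow cytometry as the fraction of propidium iodide-negative cells (7.5 μg/mL PI, 15 min), relative to 1.0% DMSO control. Beforehand, 1×10^5 Jurkat cells in RPMI/10% FBS were treated 24 h at 37° C., 5% CO2 with test compound at final 20, 5 or 1 μg/mL.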

p38 MAPKα (MAPK14) = p38 MAPKα (MAPK14) (Homo sapiens (Human), UniProt Q16539); assay: p38 MAPKα enzyme inhibition (Method 2), Z-LYTE FRET; type: biochemical
Procedure: as §1
The following two assay variants can be used for determination of p38 MAPKα inhibition.
The inhibitory activities of test compounds against the p38 MAPKα isoform (MAPK14: Invitrogen) are evaluated indirectly by determining the level of activation/phosphorylation of the down-stream molecule, MAPKAP-K2. The p38 MAPKα protein (80 ng/mL, 2.5 μL) is mixed with the test compound (2.5 μL of either 4 μg/mL, 0.4 μg/mL, 0.04 μg/mL or 0.004 μg/mL) for 2 hr at RT. […] The mixture is incubated for 1 hr at RT. Development reagent (protease, 5 μL) is added for 1 hr prior to detection in a fluorescence microplate reader (Varioskan® Flash, ThermoFisher Scientific).
This method follows the same steps as Method 1 above, but utilises a higher concentration of the p38 MAPKα protein (2.5 μL of 200 ng/mL protein instead of 2.5 μL of 80 ng/mL protein) for mixing with the test compound (tested at either 1 μg/mL, 0.1 μg/mL, 0.01 μg/mL or 0.001 μg/mL).
as §3

Chain of p38 MAPKα (MAPK14) (Q16539 whole entry): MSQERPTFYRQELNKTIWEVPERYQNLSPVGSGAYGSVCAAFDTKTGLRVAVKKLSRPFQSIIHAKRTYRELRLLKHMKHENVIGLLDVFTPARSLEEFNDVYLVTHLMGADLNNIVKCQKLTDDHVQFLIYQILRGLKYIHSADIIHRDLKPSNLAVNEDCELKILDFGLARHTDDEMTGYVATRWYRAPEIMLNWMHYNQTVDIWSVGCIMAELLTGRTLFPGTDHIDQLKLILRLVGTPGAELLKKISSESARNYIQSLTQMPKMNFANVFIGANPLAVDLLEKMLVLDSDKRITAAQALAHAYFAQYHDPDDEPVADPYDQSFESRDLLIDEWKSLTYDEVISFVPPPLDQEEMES
Chain of c-Src (P12931 whole entry, looked up): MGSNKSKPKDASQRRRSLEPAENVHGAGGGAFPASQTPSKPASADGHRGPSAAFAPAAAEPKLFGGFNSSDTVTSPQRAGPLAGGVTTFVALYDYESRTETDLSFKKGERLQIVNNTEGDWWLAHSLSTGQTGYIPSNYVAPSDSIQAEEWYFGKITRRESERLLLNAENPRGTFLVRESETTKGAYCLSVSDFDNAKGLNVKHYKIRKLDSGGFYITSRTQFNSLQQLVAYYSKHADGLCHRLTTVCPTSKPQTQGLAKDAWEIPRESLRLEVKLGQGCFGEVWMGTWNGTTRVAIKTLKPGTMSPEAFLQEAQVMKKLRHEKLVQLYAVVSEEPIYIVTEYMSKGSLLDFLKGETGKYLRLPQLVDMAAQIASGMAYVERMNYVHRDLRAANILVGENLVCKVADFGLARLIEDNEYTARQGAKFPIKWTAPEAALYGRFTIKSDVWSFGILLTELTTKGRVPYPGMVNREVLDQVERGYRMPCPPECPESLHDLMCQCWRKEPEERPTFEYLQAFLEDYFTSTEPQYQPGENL

IC50 (Syk) [nM] | IC50 (c-Src) [nM] | IC50 (p38 MAPKα (MAPK14)) [nM] | SMILES | inhibition at 5 µg/mL (mitosis in PBMCs) [%] | % Viability at 1 μg/mL (Jurkat cells) [%] | % Viability at 5 μg/mL (Jurkat cells) [%] | % Viability at 20 μg/mL (Jurkat cells) [%]
86 | 14 | – | COc1cc(Nc2cc(Oc3ccc(NC(=O)Nc4cc(C(C)(C)C)cc(NS(C)(=O)=O)c4OC)c4ccccc34)ccn2)ccc1C(=O)NCCN1CCCOCC1 [17(ai), 4-[[4-[[4-[[5-tert-butyl-3-(methanesulfonamido)-2-methoxy-phenyl]carbamoylamino]-1-naphthyl]oxy]-2-pyridyl]amino]-2-methoxy-N-[2-(1,4-oxazepan-4-yl)ethyl]benzamide] | 89.1 | – | – | –
– | – | – | COc1cc(Nc2cc(Oc3ccc(NC(=O)Nc4cc(C(C)(C)C)cc(NS(C)(=O)=O)c4OC)c4ccccc34)ccn2)ccc1C(=O)NCCN(C)CCO [17(ac), 4-[[4-[[4-[[5-tert-butyl-3-(methanesulfonamido)-2-methoxy-phenyl]carbamoylamino]-1-naphthyl]oxy]-2-pyridyl]amino]-N-[2-[2-hydroxyethyl(methyl)amino]ethyl]-2-methoxy-benzamide] | 85.8 | – | – | –
– | – | – | COc1cc(Nc2cc(Oc3ccc(NC(=O)Nc4cc(C(C)(C)C)cc(NS(C)(=O)=O)c4OC)c4ccccc34)ccn2)ccc1C(=O)NCCN1CCC(F)(F)CC1 [17(al), 4-[[4-[[4-[[5-tert-butyl-3-(methanesulfonamido)-2-methoxy-phenyl]carbamoylamino]-1-naphthyl]oxy]-2-pyridyl]amino]-N-[2-(4,4-difluoro-1-piperidyl)ethyl]-2-methoxy-benzamide] | 21.2 | – | – | –
– | – | – | COc1cc(Nc2cc(Oc3ccc(NC(=O)Nc4cc(C(C)(C)C)cc(NS(C)(=O)=O)c4OC)c4ccccc34)ccn2)ccc1C(=O)NCCN1CCN(CCO)CC1 [17(z), 4-[[4-[[4-[[5-tert-butyl-3-(methanesulfonamido)-2-methoxy-phenyl]carbamoylamino]-1-naphthyl]oxy]-2-pyridyl]amino]-N-[2-[4-(2-hydroxyethyl)piperazin-1-yl]ethyl]-2-methoxy-benzamide] | 69.7 | 102.9 | 70.9 | 2.0
– | – | – | COCCN(C)CCNC(=O)c1ccc(Nc2cc(Oc3ccc(NC(=O)Nc4cc(C(C)(C)C)cc(NS(C)(=O)=O)c4OC)c4ccccc34)ccn2)cc1OC [17(ad), 4-[[4-[[4-[[5-tert-butyl-3-(methanesulfonamido)-2-methoxy-phenyl]carbamoylamino]-1-naphthyl]oxy]-2-pyridyl]amino]-2-methoxy-N-[2-[2-methoxyethyl(methyl)amino]ethyl]-benzamide] | 93.4 | 101.4 | 6.3 | 0.4
138 | 17 | 6 | COc1cc(Nc2cc(Oc3ccc(NC(=O)Nc4cc(C(C)(C)C)cc(NS(C)(=O)=O)c4OC)c4ccccc34)ccn2)cc(OC)c1C(=O)NCCN1CCN(C)CC1 [Example 22, 4-((4-((4-(3-(5-(tert-Butyl)-2-methoxy-3-(methylsulfonamido)phenyl)ureido)naphthalen-1-yl)oxy)pyridin-2-yl)amino)-2,6-dimethoxy-N-(2-(4-methylpiperazin-1-yl)ethyl)benzamide] | – | 102.8 | 96.6 | 42.9
– | – | – | COc1c(NC(=O)Nc2ccc(Oc3ccnc(Nc4ccc(C(=O)NCCN5CCOCC5)cc4)c3)c3ccccc23)cc(C(C)(C)C)cc1NS(C)(=O)=O [17(u), 4-[[4-[[4-[[5-tert-butyl-3-(methanesulfonamido)-2-methoxy-phenyl]carbamoylamino]-1-naphthyl]oxy]-2-pyridyl]amino]-N-(2-morpholinoethyl)benzamide] | 86.9 | – | – | –
55 | 20 | 29 | COc1cc(Nc2cc(Oc3ccc(NC(=O)Nc4cc(C(C)(C)C)cc(N(CCO)S(C)(=O)=O)c4OC)c4ccccc34)ccn2)ccc1C(=O)NCCN1CC[S+]([O-])CC1 [Example 48, 4-((4-((4-(3-(5-(tert-Butyl)-3-(N-(2-hydroxyethyl)methylsulfonamido)-2-methoxyphenyl)-ureido)naphthalen-1-yl)oxy)pyridin-2-yl)amino)-2-methoxy-N-(2-(1-oxidothiomorpholino)-ethyl)benzamide] | – | 89.0 | 63.8 | 54.2
400 | 195 | 162 | COc1cc(Nc2cc(Oc3ccc(NC(=O)Nc4cc(C(C)(C)C)cc(NS(C)(=O)=O)c4OC)c4ccccc34)ccn2)ccc1S(=O)(=O)CCOCCOCCO [Example 40, N-(5-(tert-Butyl)-3-(3-(4-((2-((4-((2-(2-(2-hydroxyethoxy)ethoxy)ethyl)sulfonyl)-3-methoxyphenyl)amino)pyridin-4-yl)oxy)naphthalen-1-yl)ureido)-2-methoxyphenyl)-methanesulfonamide] | – | 89.6 | 73.6 | 67.1
33 | 12 | – | COc1cc(Nc2cc(Oc3ccc(NC(=O)Nc4cc(C(C)(C)C)cc(NS(C)(=O)=O)c4OC)c4ccccc34)ccn2)ccc1C(=O)NCCCN1CCCOCC1 [17(aj), 4-[[4-[[4-[[5-tert-butyl-3-(methanesulfonamido)-2-methoxy-phenyl]carbamoylamino]-1-naphthyl]oxy]-2-pyridyl]amino]-2-methoxy-N-[3-(1,4-oxazepan-4-yl)propyl]benzamide] | 94.9 | – | – | –
124 | 68 | 4 | COc1c(NC(=O)Nc2ccc(Oc3ccnc(Nc4ccc(C(=O)O)c(N(C)C)c4)c3)c3ccccc23)cc(C(C)(C)C)cc1NS(C)(=O)=O [17(am), 4-[[4-[[4-[[5-tert-butyl-3-(methanesulfonamido)-2-methoxy-phenyl]carbamoylamino]-1-naphthyl]oxy]-2-pyridyl]amino]-2-(dimethylamino)benzoic acid] | – | 103.4 | 90.5 | 32.5
– | – | – | COc1cc(Nc2cc(Oc3ccc(NC(=O)Nc4cc(C(C)(C)C)cc(NS(C)(=O)=O)c4OC)c4ccccc34)ccn2)ccc1C(=O)NCCCCN1CCOCC1 [17(y), 4-[[4-[[4-[[5-tert-butyl-3-(methanesulfonamido)-2-methoxy-phenyl]carbamoylamino]-1-naphthyl]oxy]-2-pyridyl]amino]-2-methoxy-N-(4-morpholinobutyl)benzamide] | 70.8 | – | – | –
257 | 17 | 6 | COc1cc(Nc2cc(Oc3ccc(NC(=O)Nc4cc(C(C)(C)C)cc(NS(C)(=O)=O)c4OC)c4ccccc34)ccn2)cc(OC)c1C(=O)NCCN(C)C [Example 39, 4-((4-((4-(3-(5-(tert-Butyl)-2-methoxy-3-(methylsulfonamido)phenyl)ureido)naphthalen-1-yl)oxy)pyridin-2-yl)amino)-N-(2-(dimethylamino)ethyl)-2,6-dimethoxybenzamide] | – | 93.9 | 87.7 | 1.5
